Results taken from ChEMBL document CHEMBL5375984, “Development of Ligands for the Super Conserved Orphan G Protein-Coupled Receptor GPR27 with Improved Efficacy and Potency” (J Med Chem, 2023).

How the values were obtained:
GPR27-V2 [1] = molecular target: T1, GPR27-V2 (Homo sapiens, UniProt P30518+Q9NS67); assay: Agonist activity at CLuc-tagged human GPR27-V2 expressed in HEK293 cells incubated for 10 mins by beta-arrestin 2 recruitment based firefly luciferase complementation assay
[2] = molecular target: Probable G-protein coupled receptor 27 (Homo sapiens, UniProt Q9NS67); assay: Agonist activity at CLuc-tagged human GPR27 expressed in HEK293 cells incubated for 10 mins by beta-arrestin 2 recruitment based firefly luciferase complementation assay
Sequence of Probable G-protein coupled receptor 27 (Q9NS67 whole entry): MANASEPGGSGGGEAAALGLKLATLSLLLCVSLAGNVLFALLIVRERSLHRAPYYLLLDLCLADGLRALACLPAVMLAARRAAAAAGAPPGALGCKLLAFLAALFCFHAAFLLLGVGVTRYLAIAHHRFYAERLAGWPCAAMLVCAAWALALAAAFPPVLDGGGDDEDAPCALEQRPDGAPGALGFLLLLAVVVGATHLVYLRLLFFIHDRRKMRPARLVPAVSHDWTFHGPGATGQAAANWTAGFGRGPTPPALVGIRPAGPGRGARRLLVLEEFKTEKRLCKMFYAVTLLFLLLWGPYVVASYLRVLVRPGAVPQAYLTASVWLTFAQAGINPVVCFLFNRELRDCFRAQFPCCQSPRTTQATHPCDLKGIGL

GPR27-V2 [3] = molecular target: T1, GPR27-V2; assay: Agonist activity at CLuc-tagged human GPR27-V2 expressed in HEK293 cells incubated overnight by beta-arrestin 2 recruitment based firefly luciferase complementation assay

T1 sequence (P30518 whole entry): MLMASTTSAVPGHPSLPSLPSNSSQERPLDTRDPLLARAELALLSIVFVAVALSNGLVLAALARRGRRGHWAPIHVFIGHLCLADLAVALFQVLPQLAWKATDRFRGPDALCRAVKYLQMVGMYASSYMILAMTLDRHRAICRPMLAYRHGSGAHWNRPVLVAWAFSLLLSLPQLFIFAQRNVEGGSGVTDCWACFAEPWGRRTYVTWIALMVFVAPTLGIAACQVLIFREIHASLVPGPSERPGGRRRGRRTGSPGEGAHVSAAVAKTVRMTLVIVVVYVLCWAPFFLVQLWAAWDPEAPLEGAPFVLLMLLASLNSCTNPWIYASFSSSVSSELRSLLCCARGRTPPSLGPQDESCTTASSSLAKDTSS
T1 sequence (Q9NS67 whole entry): as the sequence (Q9NS67 whole entry) above

| SMILES | EC50 (GPR27-V2 [1]) [nM] | EC50 [2] [nM] | EC50 (GPR27-V2 [3]) [nM] |
| --- | --- | --- | --- |
| O=C(Nc1ccc(S(=O)(=O)Nc2ccccc2)cc1)c1ccc(Cl)cc1OC(F)(F)F | 195 | > 31600 |  |
| O=C(Nc1ccc(S(=O)(=O)Nc2ccccc2)cc1)c1cc(F)c(Cl)cc1Cl |  | 380 |  |
| N#Cc1ccc(C(=O)Nc2ccc(S(=O)(=O)Nc3ccccc3)cc2)c(Cl)c1 | 5890 | 977 |  |
| COc1ccc(C(=O)Nc2ccc(S(=O)(=O)Nc3ccccc3)cc2)c(Cl)c1 | 8130 | > 31600 |  |
| O=C(Nc1ccc(S(=O)(=O)Nc2ccccc2)cc1)c1cc(Cl)c(Cl)cc1Cl |  | 589 |  |
| O=C(Nc1ccc(S(=O)(=O)Nc2ccccc2)cc1)c1ccc(F)cc1F | 3890 | 447 |  |
| O=C(Nc1ccc(S(=O)(=O)Nc2ccccc2)cc1)c1ccc(Cl)c(Cl)c1Cl |  | 631 |  |
| Cc1cc(C(=O)Nc2ccc(S(=O)(=O)Nc3ccccc3)cc2)c(C)cc1Cl |  | 275 |  |
| O=C(Nc1ccc(S(=O)(=O)Nc2ccccc2)cc1)c1ccc(C(F)(F)F)cc1C(F)(F)F | 550 | > 31600 |  |
| Cc1nnc(NS(=O)(=O)c2ccc(NC(=O)c3ccc(Cl)cc3Cl)cc2)s1 | > 100000 |  |  |
| CNS(=O)(=O)c1ccc(NC(=O)c2ccc(Br)cc2Br)cc1 | > 100000 |  |  |
| Cc1cc(C(=O)Nc2ccc(S(=O)(=O)Nc3ccccc3)cc2)c(F)cc1Br |  | 2140 |  |
| N#Cc1cc(Cl)c(C(=O)Nc2ccc(S(=O)(=O)Nc3ccccc3)cc2)c(Cl)c1 |  | > 31600 |  |
| Cc1cc(Cl)c(Cl)cc1C(=O)Nc1ccc(S(=O)(=O)Nc2ccccc2)cc1 |  | 263 |  |
| O=C(/C=C/c1ccc(Cl)cc1Cl)Nc1ccc(S(=O)(=O)Nc2ccccc2)cc1 | > 100000 |  |  |
| Cc1cc(NS(=O)(=O)c2ccc(NC(=O)c3ccc(Cl)cc3Cl)cc2)no1 | > 100000 |  |  |
| CC(=O)NS(=O)(=O)c1ccc(NC(=O)c2ccc(Cl)cc2Cl)cc1 | > 100000 |  |  |
| O=C(Nc1ccc(S(=O)(=O)O)cc1)c1ccc(Cl)cc1Cl | > 100000 |  |  |
| Cc1cc(Cl)c(C(=O)Nc2ccc(S(=O)(=O)Nc3ccccc3)cc2)cc1Cl |  | 363 |  |
| Cc1cc(Br)c(F)cc1C(=O)Nc1ccc(S(=O)(=O)Nc2ccccc2)cc1 |  | 562 |  |

Other lines, results leading:

| EC50 (GPR27-V2 [1]) [nM] | EC50 [2] [nM] | EC50 (GPR27-V2 [3]) [nM] | SMILES |
| --- | --- | --- | --- |
|  |  | 661 | O=C(Nc1ccc(S(=O)(=O)Nc2nccs2)cc1)c1ccc(Cl)cc1Cl |
|  | > 31600 |  | Cc1cc(Cl)c(C(=O)Nc2ccc(S(=O)(=O)Nc3ccccc3)cc2)cc1F |
| > 100000 | > 31600 |  | COc1ccc(C(=O)Nc2ccc(S(=O)(=O)Nc3ccccc3)cc2)c(C)c1 |
|  | 126 |  | Cc1cc(C(=O)Nc2ccc(S(=O)(=O)Nc3ccccc3)cc2)c(C)cc1Br |
| 38000 |  |  | CS(=O)(=O)c1ccc(NC(=O)c2ccc(Cl)cc2Cl)cc1 |
| 6920 | 245 |  | O=C(Nc1ccc(S(=O)(=O)Nc2ccccc2)cc1)c1ccc(C(F)(F)F)cc1Br |
| > 100000 |  |  | O=C(Nc1ccc(S(=O)(=O)Nc2cnc3ccccc3n2)cc1)c1ccc(Cl)cc1Cl |
| 977 | 204 |  | COc1cc(Cl)ccc1C(=O)Nc1ccc(S(=O)(=O)Nc2ccccc2)cc1 |
| 3890 | 6760 |  | O=C(Nc1ccc(S(=O)(=O)Nc2ccccc2)cc1)c1ccc(C(F)(F)F)cc1Cl |
|  | > 31600 |  | O=C(Nc1ccc(S(=O)(=O)Nc2ccccc2)cc1)c1c(Cl)cc(Cl)cc1Cl |
| > 100000 |  |  | NS(=O)(=O)c1ccc(NC(=O)c2ccc(Br)cc2Br)cc1 |
| > 100000 |  |  | CN(C)S(=O)(=O)c1ccc(NC(=O)c2ccc(Cl)cc2Cl)cc1 |
|  | 955 |  | O=C(Nc1ccc(S(=O)(=O)Nc2ccccc2)cc1)c1cc2ccccc2cc1Cl |
| > 100000 |  |  | Cc1onc(NS(=O)(=O)c2ccc(NC(=O)c3ccc(Cl)cc3Cl)cc2)c1C |
|  | 372 |  | Cc1cc(C(=O)Nc2ccc(S(=O)(=O)Nc3ccccc3)cc2)c(Cl)cc1Cl |
| 7410 | 6610 | 417 | O=C(Nc1ccc(S(=O)(=O)Nc2ccccc2)cc1)c1ccc(Cl)cc1Cl |
| 3240 | 1230 |  | O=C(Nc1ccc(S(=O)(=O)Nc2ccccc2)cc1)c1ccc(Br)cc1Br |
